Measurements as given in publication PMC8318231, “Rate-of-Kill (RoK) assays to triage large compound sets for Chagas disease drug discovery: Application to GSK Chagas Box” (PLoS Neglected Tropical Diseases, 2021).

Legend:
[1] = system: T. cruzi intracellular amastigotes in H9c2 cells; experiment: Rate-of-Kill (RoK) high-content imaging assay, amastigotes per cell (AM/CELL) and curve descriptors; type: cell-based, Trypanosoma cruzi; parameters: key to ME_24h / ME_48h / ME_72h: % reduction in parasite burden (cidal response); t50pct_MCC50 / t50pct_Cmax: unit not given here; conditions: for ME_24h: 24h; for ME_48h: 48h; for ME_72h: 72h; for AM/CELL NORM: sheet figure 4 A; for tlag_Cmax / t50pct_Cmax / t50%_Cmax: at Cmax; for ME_24h (%): maximum effect at 24 h; for ME_24h (%) / ME_48h (%) / ME_72h (%): RoK assay; for ME_48h (%): maximum effect at 48 h; for ME_72h (%): maximum effect at 72 h; for ME 24h (maximum effect at 24 hours, intracellular amastigotes): maximum percentage of parasite burden reduction reached by any concentration
Method in brief: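 H9c2 cardiomyocytes infected with T. cruzi trypomastigotes (MOI 8, 18 h), then compounds tested at 5 μM single shot or 11-point 1/3 dilution from 50 μM. DRAQ5-stained nuclei imaged over a time course. Amastigotes per cell normalised to infected cells at 4 h (0%) and non-infected cells (100%).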

TcCYP51 = conditions: formerly reported; cited from earlier work
[2] = system: T. cruzi Tulahuen trypomastigotes; experiment: T. cruzi trypomastigote assay (Cell Titer-Glo viability, ATP luminescence); type: cell-based, Trypanosoma cruzi; conditions: for Trypomastigotes pIC50 48 hours: 48 hours incubation; for Trypomastigotes pIC50 48 hours / Trypomastigotes pIC50 72 hours: pIC50 = -log10 IC50 in molar units; for Trypomastigotes pIC50 72 hours: 72 hours incubation; for 72 pIC50 (trypomastigotes, raw data of Fig 1D): 72 hours, plotted values, censored values given without sign; for 48 pIC50 / 72 pIC50: trypomastigote assay; for 48 pIC50: 48 h; for 72 pIC50: 72 h
Method in brief: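 Tulahuen trypomastigotes from infected LLC-MK2 culture supernatants (days 5–8) plated at 5 × 10^4 per well in DMEM/2% FBS with compound at 5 μM single-shot final or in dose response. Viability by CellTiter-Glo ATP luminescence after 10 min at room temperature, normalised to no-cell (100%) and DMSO (0%) controls.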

CN(C(=O)Nc1ccc2c(c1)CCN(C1CCC1)CC2)c1ccc(C#N)cc1.Cl [TCMDC-143526]
ME_24h ([1]; figure 5): -107.476 | ME_48h ([1]; figure 5): -30.6533 | ME_72h ([1]; figure 5): 30.9234 | MCCE ([1]; RoK curve descriptor): 1.9 µM | AM/CELL NORM ([1]; Time 4): 4.08 | AM/CELL NORM ([1]; Time 24): -107.476 | AM/CELL NORM ([1]; Time 48): -30.6533 | AM/CELL NORM ([1]; Time 72): 30.9234 | tlag_Cmax [1]: 24.0 h | t50pct_Cmax ([1]; figure 5): 72 | tlag_Cmax ([1]; figure 5): 24 | t50pct_MCC50 ([1]; at MCC50, figure 5): 72 | tlag_MCC50 ([1]; at MCC50, figure 5): 72 | MCC50 ([1]; figure 5): 50 µM | MCCE ([1]; figure 5): 1.852 | ME_24h (%) [1]: -107.5% | ME_48h (%) [1]: -30.7% | ME_72h (%) [1]: 30.9% | ME 24h (maximum effect at 24 hours, intracellular amastigotes) [1]: -107.476% | CYP51 pIC50 (TcCYP51): < 4 | Trypomastigotes pIC50 48 hours [2]: < 4.3 | Trypomastigotes pIC50 72 hours [2]: < 4.3 | 72 pIC50 (trypomastigotes, raw data of Fig 1D) [2]: < 4.3 | 48 pIC50 ([2]; figure 1A): < 4.3 | 72 pIC50 ([2]; figure 1A): < 4.3 | 72 pIC50 ([2]; figure 1B): < 4.3

CC(CNS(=O)(=O)c1ccc(OC(F)F)cc1)c1ccc(NC(=O)c2ccncc2)cc1 (stereo not drawn) [TCMDC-143535]
ME_24h ([1]; figure 5): -92.8433 | ME_48h ([1]; figure 5): -11.1799 | ME_72h ([1]; figure 5): 45.5869 | MCCE ([1]; RoK curve descriptor): 0.2 µM | AM/CELL NORM ([1]; Time 4): 3.544 | AM/CELL NORM ([1]; Time 24): -92.8433 | AM/CELL NORM ([1]; Time 48): -15.4132 | AM/CELL NORM ([1]; Time 72): 37.7082 | tlag_Cmax [1]: 24.0 h | t50pct_Cmax ([1]; figure 5): 72 | tlag_Cmax ([1]; figure 5): 24 | t50pct_MCC50 ([1]; at MCC50, figure 5): 72 | tlag_MCC50 ([1]; at MCC50, figure 5): 72 | MCC50 ([1]; figure 5): 50 µM | MCCE ([1]; figure 5): 0.2058 | ME_24h (%) [1]: -92.8% | ME_48h (%) [1]: -11.2% | ME_72h (%) [1]: 45.6% | ME 24h (maximum effect at 24 hours, intracellular amastigotes) [1]: -92.8433% | CYP51 pIC50 (TcCYP51): 7.3 | Trypomastigotes pIC50 48 hours [2]: 4.6 | Trypomastigotes pIC50 72 hours [2]: 4.4

Cn1cc(CN2CCN(c3ccc4c(c3)CCN(C(=O)[C@H]3C[C@@H]3c3ccccc3)CC4)CC2)cn1 [TCMDC-143537]
ME_24h ([1]; figure 5): 33.1689 | ME_48h ([1]; figure 5): 35.5175 | ME_72h ([1]; figure 5): 52.5957 | MCC50 ([1]; RoK curve descriptor): 16.7 µM | MCCE ([1]; RoK curve descriptor): 0.6 µM | AM/CELL NORM ([1]; Time 4): 1.751 | AM/CELL NORM ([1]; Time 24): 33.1689 | AM/CELL NORM ([1]; Time 48): 30.0543 | AM/CELL NORM ([1]; Time 72): 50.1418 | t50%_Cmax [1]: 72.0 h | tlag_Cmax [1]: 4.0 h | t50pct_Cmax ([1]; figure 5): 72 | tlag_Cmax ([1]; figure 5): 4 | t50%_MCC50 ([1]; at MCC50): 72.0 h | tlag_MCC50 ([1]; at MCC50): 24.0 h | t50pct_MCC50 ([1]; at MCC50, figure 5): 72 | tlag_MCC50 ([1]; at MCC50, figure 5): 24 | MCCE ([1]; figure 5): 0.6173 | MCC50 ([1]; figure 5, in µM): 16.6667 | ME_24h (%) [1]: 33.2% | ME_48h (%) [1]: 35.5% | ME_72h (%) [1]: 52.6% | ME 24h (maximum effect at 24 hours, intracellular amastigotes) [1]: 33.1689% | CYP51 pIC50 (TcCYP51): 4.8 | Trypomastigotes pIC50 48 hours [2]: 5 | Trypomastigotes pIC50 72 hours [2]: 4.9

O=C(CN(c1cccc(C(F)(F)F)c1)S(=O)(=O)c1ccc(Cl)cc1)NCc1ccc(F)c(F)c1 [TCMDC-143548]
ME_24h ([1]; figure 5): -13.6646 | ME_48h ([1]; figure 5): 17.5808 | ME_72h ([1]; figure 5): 36.7488 | MCCE ([1]; RoK curve descriptor): 0.6 µM | AM/CELL NORM ([1]; Time 4): 27.6101 | AM/CELL NORM ([1]; Time 24): -54.8458 | AM/CELL NORM ([1]; Time 48): -14.5763 | AM/CELL NORM ([1]; Time 72): 13.9259 | tlag_Cmax [1]: 24.0 h | t50pct_Cmax ([1]; figure 5): 72 | tlag_Cmax ([1]; figure 5): 24 | t50pct_MCC50 ([1]; at MCC50, figure 5): 72 | tlag_MCC50 ([1]; at MCC50, figure 5): 72 | MCC50 ([1]; figure 5): 50 µM | MCCE ([1]; figure 5): 0.6173 | ME_24h (%) [1]: -13.7% | ME_48h (%) [1]: 17.6% | ME_72h (%) [1]: 36.8% | ME 24h (maximum effect at 24 hours, intracellular amastigotes) [1]: -13.6646% | CYP51 pIC50 (TcCYP51): 6.8 | Trypomastigotes pIC50 48 hours [2]: 5 | Trypomastigotes pIC50 72 hours [2]: 4.9

COc1ccc(S(=O)(=O)NCc2ccc(-c3ccc(CN(C)CCO)cc3)cc2)cc1.O=C(O)C(F)(F)F [TCMDC-143549]
ME_24h ([1]; figure 5): 31.0393 | ME_48h ([1]; figure 5): 40.4277 | ME_72h ([1]; figure 5): 76.5332 | MCC50 ([1]; RoK curve descriptor): 16.7 µM | MCCE ([1]; RoK curve descriptor): 5.6 µM | AM/CELL NORM ([1]; Time 4): -7.714 | AM/CELL NORM ([1]; Time 24): 31.0393 | AM/CELL NORM ([1]; Time 48): 40.4277 | AM/CELL NORM ([1]; Time 72): 76.5332 | t50%_Cmax [1]: 72.0 h | tlag_Cmax [1]: 4.0 h | t50pct_Cmax ([1]; figure 5): 72 | tlag_Cmax ([1]; figure 5): 4 | t50%_MCC50 ([1]; at MCC50): 72.0 h | tlag_MCC50 ([1]; at MCC50): 24.0 h | t50pct_MCC50 ([1]; at MCC50, figure 5): 72 | tlag_MCC50 ([1]; at MCC50, figure 5): 24 | MCCE ([1]; figure 5): 5.556 | MCC50 ([1]; figure 5, in µM): 16.6667 | ME_24h (%) [1]: 31.0% | ME_48h (%) [1]: 40.4% | ME_72h (%) [1]: 76.5% | ME 24h (maximum effect at 24 hours, intracellular amastigotes) [1]: 31.0393% | CYP51 pIC50 (TcCYP51): 4.8 | Trypomastigotes pIC50 48 hours [2]: 4.6 | Trypomastigotes pIC50 72 hours [2]: < 4.3

CCCN1CCN(Cc2ccc(S(=O)(=O)Nc3cccc(C)c3)cc2)CC1.O=C(O)C(F)(F)F.O=C(O)C(F)(F)F [TCMDC-143550]
ME_24h ([1]; figure 5): -35.0895 | ME_48h ([1]; figure 5): 33.2327 | ME_72h ([1]; figure 5): 65.1227 | MCC50 ([1]; RoK curve descriptor): 1.9 µM | MCCE ([1]; RoK curve descriptor): 0.6 µM | AM/CELL NORM ([1]; Time 4): -2.745 | AM/CELL NORM ([1]; Time 24): -35.0895 | AM/CELL NORM ([1]; Time 48): 33.2327 | AM/CELL NORM ([1]; Time 72): 54.4775 | t50%_Cmax [1]: 72.0 h | tlag_Cmax [1]: 24.0 h | t50pct_Cmax ([1]; figure 5): 72 | tlag_Cmax ([1]; figure 5): 24 | t50%_MCC50 ([1]; at MCC50): 72.0 h | tlag_MCC50 ([1]; at MCC50): 24.0 h | t50pct_MCC50 ([1]; at MCC50, figure 5): 72 | tlag_MCC50 ([1]; at MCC50, figure 5): 24 | MCCE ([1]; figure 5): 0.6173 | MCC50 ([1]; figure 5, in µM): 1.852 | ME_24h (%) [1]: -35.1% | ME_48h (%) [1]: 33.2% | ME_72h (%) [1]: 65.1% | ME 24h (maximum effect at 24 hours, intracellular amastigotes) [1]: -35.0895% | CYP51 pIC50 (TcCYP51): < 4 | Trypomastigotes pIC50 48 hours [2]: < 4.3 | Trypomastigotes pIC50 72 hours [2]: < 4.3 | 72 pIC50 (trypomastigotes, raw data of Fig 1D) [2]: < 4.3 | 48 pIC50 ([2]; figure 1A): < 4.3 | 72 pIC50 ([2]; figure 1A): < 4.3 | 72 pIC50 ([2]; figure 1B): < 4.3

O=C(CSc1ccc(-c2ccccn2)nn1)Nc1ccc(Cl)cc1 [TCMDC-143552]
ME_24h ([1]; figure 5): -18.5463 | ME_48h ([1]; figure 5): -23.0005 | ME_72h ([1]; figure 5): 85.8726 | MCC50 ([1]; RoK curve descriptor): 16.7 µM | MCCE ([1]; RoK curve descriptor): 5.6 µM | AM/CELL NORM ([1]; Time 4): 7.37 | AM/CELL NORM ([1]; Time 24): -202.586 | AM/CELL NORM ([1]; Time 48): -606.539 | AM/CELL NORM ([1]; Time 72): -482.613 | tlag_Cmax [1]: 48.0 h | t50pct_Cmax ([1]; figure 5): 72 | tlag_Cmax ([1]; figure 5): 48 | t50%_MCC50 ([1]; at MCC50): 72.0 h | tlag_MCC50 ([1]; at MCC50): 48.0 h | t50pct_MCC50 ([1]; at MCC50, figure 5): 72 | tlag_MCC50 ([1]; at MCC50, figure 5): 48 | MCCE ([1]; figure 5): 5.556 | MCC50 ([1]; figure 5, in µM): 16.6667 | ME_24h (%) [1]: -18.6% | ME_48h (%) [1]: -23.0% | ME_72h (%) [1]: 85.9% | ME 24h (maximum effect at 24 hours, intracellular amastigotes) [1]: -18.5463% | CYP51 pIC50 (TcCYP51): < 4 | Trypomastigotes pIC50 48 hours [2]: 5.4 | Trypomastigotes pIC50 72 hours [2]: 5.5
